Test results taken from patent US11998008B2, “Pesticides and methods of controlling pests” (The State of Israel, Ministry of Agriculture & Rural …, priority 2017, dated 2024).
“Also recorded” adds a separate entry of the source.

Tests used:
[1] = tested on: R. solani; assay: microbe, parasite or virus in culture; type: cell-based; conditions: R. solani; for MFC: Rhizoctonia solani, read-out: M - Mortality, minimal concentration that killed the fungus
Description: (§1) Each compound was placed on a disconnected cover from an Eppendorf tube that was located in the middle of the Petri dish and a hyphae-containing plug of each test fungus was added to the culture plate. In exemplary procedures, the tested compounds trans-2-heptenal, trans-2-octenal were tested in comparison with octanal, trans-2-octen-1-ol, methyl trans-2-octenoate, trans-3-octen-2-one and 3-pentenenitrile. In addition, cyclic ketones as 2-cyclopenten-1-one, 2-cyclohexen-1-one and α-tetralone were also examined. Then, the culture plate was sealed with parafilm and incubated at room-temperature for 2 days, after which the growth of the test fungi in those dishes was compared with those in the test compound-free control dishes. At the end of the assay, the viability of each test fungus was evaluated by transferring inoculum plugs to fresh PDA plates and observing the growth that developed within the next 2 days. The test fungi used in this study included but were not limited to Alternaria alternata, Botrytis cinerea, Sclerotinia rolfsii, Penicillium digitatum, Fusarium oxysporum f. sp. radicis-cucumerinum and Rhizoctonia solani.

[2] = tested on: S. rolfsii; assay: Fungicidal activity assay on PDA in sealed Petri dish (growth inhibition and mortality); type: cell-based, Sclerotinia rolfsii; conditions: S. rolfsii; for I - Inhibition class: 2 days; for M - Mortality, minimal concentration that killed the fungus / MFC: NA + number = still viable in the highest concentration tested (given as >); for I - Inhibition, minimal concentration that inhibited the growth: concentration to which the class above belongs; for MFC: Agroathelia rolfsii, read-out: M - Mortality, minimal concentration that killed the fungus
Description: as §1

[3] = tested on: Meloidogyne javanica second stage juveniles (J2s); assay: Nematocidal activity: viability of J2 nematodes after 2 days exposure to the compound in a sealed box; type: in vivo; conditions: for Activity: the most effective concentration: concentration to which the class of the same cell belongs; for nematocidal activity in words: comparison within the series
Excerpt: In exemplary procedures, the sedentary root-knot nematode from the genus Meloidogyne javanica second stage juveniles (J2s) was propagated on greenhouse-grown nematode-susceptible tomato Lycopersicon esculentum cv. ‘Avigail 870’ (Hazera, Shikmim, Israel), and nematode eggs were bulk-extracted from the roots with 0.05% (v/v) sodium hypochlorite (NaOCl) followed by sucrose flotation and successive sievings through nylon filters of 300, 120, 60, and 30 μm mesh sizes (AD Sinun Technologies, Petach Tikvah, Israel). For hatching J2, extracted eggs were placed on 30-μm sieves (AD Sinun Technologies) in 0.01 M MES (2-(N-morpholino) ethanesulfonic acid hydrate) pH 6.5 buffer under aseptic conditions in darkness for 5 days, and hatching J2s were collected for further experiments.
Seven vials, each containing 300 J2 nematodes with 0.5 mL of 0.01 M 2-(N-morpholino)ethanesulfonic acid (MES) buffer, were exposed to cyclic ketone compounds in order to examine their nematocidal activity and reduction in viability. In addition, a humid environment in a sealed 1 L box was maintained by addition 5 ml of distilled H2O to a 50-mm Petri plate. The box was sealed after compound addition into each 50-mm Petri plate together with 5-250 mg of perlite particles and incubated for 2 days in the dark at 25±1° C. C5 and C6 saturated and α,β-unsaturated cyclic ketones were tested for their nematocidal activity. The J2 nematodes viability was examined following exposure to the cyclic ketone compounds, by a straightforward small-scale nematode extraction method, based on the traditional Baermann funnel method. Briefly, all nematode suspensions were loaded onto 30-μm (AD Sinun Technologies) filters (1.0-1.5 cm height, 1.1-2.0 cm^3 internal area), and the nematodes were washed twice with 300 μL of 0.01 M MES buffer in order to remove any residues. Then, filters holding nematodes were placed into 15 mL Falcon centrifuge tubes, each containing 900 μL of 0.01 M of MES buffer. These filters allow active passage of only living J2s while paralyzed or dead nematodes remain on top of the filter. The whole apparatus including the filter holding the nematodes and the Falcon tubes were placed in the dark for 3 h at 25±1° C. Then, the filters were removed and the viable nematodes, which were able to actively cross the filter toward the 0.01 M of MES buffer, were collected from the Falcon tube and counted using a Nematode Counting Slide (Chalex LLC, Portland, OR, USA) and a SV11 stereomicroscope (Zeiss, Jena, Germany).
Data were analyzed by the JMP 12 software package (SAS Inc., Cary, NC, USA). Mean numbers of viable J2s under various conditions were subjected to one-way analysis of variance (ANOVA), followed by the Tukey-Kramer multiple comparison test, with significance set at P<0.05.

[4] = tested on: F. oxysporum f. sp. radicis-cucumerium; assay: Fungicidal activity assay on PDA in sealed Petri dish (growth inhibition and mortality); type: cell-based, Fusarium oxysporum f. sp. radicis-cucumerinum; conditions: for MFC: Fusarium oxysporum, read-out: M - Mortality, minimal concentration that killed the fungus
Description: as §1

[5] = tested on: test fungi; assay: Fungicidal activity assay on PDA, summaries over the test fungi; type: cell-based; conditions: comparison within the series
Description: as §1, with “In exemplary procedures, the fungicidial activity of the compounds listed in Table 2 were examined by activity assays as follow: Petri dishes, 90 mm in diameter, with air volume of 80 mL, contained 10-12 mL of growth medium comprising potato dextrose agar (PDA) (Acumedia, Lansing, Michigan, USA) amended with tetracycline at 12 μg/mL. Each” for “Each”

[6] = tested on: A. alternata; assay: Fungicidal activity assay on PDA in sealed Petri dish (growth inhibition and mortality); type: cell-based, Alternaria alternata
Description: as §1, with “In exemplary procedures, the fungicidial activity of the compounds listed in Table 2 were examined by activity assays as follow: Petri dishes, 90 mm in diameter, with air volume of 80 mL, contained 10-12 mL of growth medium comprising potato dextrose agar (PDA) (Acumedia, Lansing, Michigan, USA) amended with tetracycline at 12 μg/mL. Each” for “Each”

[7] = tested on: P. digitatum; assay: as above; type: cell-based, Penicillium digitatum
Description: as §1, with “In exemplary procedures, the fungicidial activity of the compounds listed in Table 2 were examined by activity assays as follow: Petri dishes, 90 mm in diameter, with air volume of 80 mL, contained 10-12 mL of growth medium comprising potato dextrose agar (PDA) (Acumedia, Lansing, Michigan, USA) amended with tetracycline at 12 μg/mL. Each” for “Each”

[8] = tested on: B. cinerea; assay: as above; type: cell-based, Botrytis cinerea
Description: as §1, with “In exemplary procedures, the fungicidial activity of the compounds listed in Table 2 were examined by activity assays as follow: Petri dishes, 90 mm in diameter, with air volume of 80 mL, contained 10-12 mL of growth medium comprising potato dextrose agar (PDA) (Acumedia, Lansing, Michigan, USA) amended with tetracycline at 12 μg/mL. Each” for “Each”

[9] = tested on: Tomato plants; assay: Phytotoxicity on tomato plants in soil, compound on perlite particles; type: in vivo; conditions: one day after treatment
Excerpt: In exemplary procedures, the phytotixicity of trans-2-octenal and 2-cyclopenten-1-one was examined in triplicates for each concentration: 250, 1,000, 4,000, and 20,000 ppm compared to control.

[10] = NA + number = still viable in the highest concentration tested (given as >)
[11] = concentration to which the class above belongs

O=C1CCCc2ccccc21 [α-Tetralone]
I - Inhibition class ([1]; 2 days): NI (<50% growth inhibition) | M - Mortality, minimal concentration that killed the fungus [1, 10]: > 25 ppm | I - Inhibition, minimal concentration that inhibited the growth [1, 11]: 25 ppm | I - Inhibition class [2]: NI (<50% growth inhibition) | M - Mortality, minimal concentration that killed the fungus [2]: > 25 ppm | I - Inhibition, minimal concentration that inhibited the growth [2]: 25 ppm | Activity: the most effective concentration [3]: 25 ppm | I - Inhibition class ([4]; 2 days): NI (<50% growth inhibition) | M - Mortality, minimal concentration that killed the fungus [4, 10]: > 25 ppm | I - Inhibition, minimal concentration that inhibited the growth [4, 11]: 25 ppm | fungicidal activity in words [5]: further reduced fungicidal activity

O=C1CCCCCC1 [Cycloheptanone]
MFC [1, 10]: > 250 µg/mL | MFC [2]: 2500 µg/mL | MFC ([6]; Alternaria alternata, NA + number = still viable in the highest concentration tested (given as >), read-out: M - Mortality, minimal concentration that killed the fungus): 1250 µg/mL | MFC ([7]; Penicillium digitatum, NA + number = still viable in the highest concentration tested (given as >), read-out: M - Mortality, minimal concentration that killed the fungus): 2500 µg/mL | nematocidal activity in words [3]: nematocidal effects at substantially higher concentrations | MFC [4, 10]: > 250 µg/mL | MFC ([8]; Botrytis cinerea, NA + number = still viable in the highest concentration tested (given as >), read-out: M - Mortality, minimal concentration that killed the fungus): 1250 µg/mL

O=C1C=CCC1 [2-cyclopenten-1-one]
MFC [1, 10]: > 25 µg/mL | MFC [2]: > 25 µg/mL | MFC [4, 10]: > 25 µg/mL | fungicidal activity in words [5]: fungicidal activity, to some extent | phytotoxicity ([9]; 250 ppm): No phytotoxicity | phytotoxicity ([9]; 1,000 ppm): phytotoxic; also recorded: Low phytotoxicity | phytotoxicity ([9]; 4,000 ppm): phytotoxic; also recorded: Medium phytotoxicity | phytotoxicity ([9]; 20,000 ppm): phytotoxic; also recorded: Strong phytotoxicity

trans-2-heptanol
I - Inhibition class [2]: SI (Strong inhibition - 100% of growth inhibition compared to control.) | M - Mortality, minimal concentration that killed the fungus [2]: 500 ppm | I - Inhibition, minimal concentration that inhibited the growth [2]: 125 ppm | I - Inhibition class ([6]; 2 days): SI (Strong inhibition - 100% of growth inhibition compared to control.) | M - Mortality, minimal concentration that killed the fungus [6, 10]: 500 ppm | I - Inhibition, minimal concentration that inhibited the growth [6, 11]: 125 ppm | I - Inhibition class ([7]; 2 days): SI (Strong inhibition - 100% of growth inhibition compared to control.) | M - Mortality, minimal concentration that killed the fungus [7, 10]: 1250 ppm | I - Inhibition, minimal concentration that inhibited the growth [7, 11]: 125 ppm | Activity: reduction in J2s viability relative to non exposed control J2s (class) ([3]; at the concentration given, 2 days incubation): L (51-75% reduction in viability) | Activity: the most effective concentration [3]: 500 ppm | I - Inhibition class ([8]; 2 days): SI (Strong inhibition - 100% of growth inhibition compared to control.) | M - Mortality, minimal concentration that killed the fungus [8, 10]: 500 ppm | I - Inhibition, minimal concentration that inhibited the growth [8, 11]: 125 ppm

O=C1CCCCC1 [Cyclohexanone]
MFC [1, 10]: > 250 µg/mL | MFC [2]: 500 µg/mL | nematocidal activity in words [3]: nematocidal effects at substantially higher concentrations | MFC [4, 10]: > 250 µg/mL
